In patent US20250170281A1, “ANTI-CANCER TREATMENT WITH A RADIOACTIVE PARP INHIBITOR” (The Chancellor, Masters and Scholars of the University of …, priority 2022, published 2025):
“Also recorded” adds a separate entry of the source.

Columns and labels:
U87MG cells [1] = assay: Colony formation assay; assay type: cell-based, Human; details: for effect on clonogenic survival: cold compounds at amounts equivalent to [123I]CC1
Method: (§1) Separate aliquots of cells were irradiated (0-10 Gy, using a ^137Cs irradiator, 0.8 Gy/min). Cells were then washed, a fraction of which was then transferred to 6-well plates containing 2 mL of growth medium, and colony formation was measured two weeks after treatment. Colony numbers were normalized to the number of cells transferred to the plates to obtain plating efficiency, which was in turn normalized to that of untreated cells.
(§2) Following the protocol outlined in part A hereinbefore, colony formation assays were conducted on aliquots of PSN1, U87MG and MDA-MB-231 cells.

PSN1 cells [2] = assay: Colony formation assay; assay type: cell-based; details: for effect on clonogenic survival: PSN1, cold compounds at amounts equivalent to [123I]CC1
Method: as §1, §2

PARP6 = PARP6 (Homo sapiens, UniProt Q2NL67); assay: PARP family enzymatic activity screening at 10 nM (BPS assay kits); details: lesser degree than olaparib, rucaparib and other established PARP inhibitors
Chain of PARP6 (Q2NL67 whole entry): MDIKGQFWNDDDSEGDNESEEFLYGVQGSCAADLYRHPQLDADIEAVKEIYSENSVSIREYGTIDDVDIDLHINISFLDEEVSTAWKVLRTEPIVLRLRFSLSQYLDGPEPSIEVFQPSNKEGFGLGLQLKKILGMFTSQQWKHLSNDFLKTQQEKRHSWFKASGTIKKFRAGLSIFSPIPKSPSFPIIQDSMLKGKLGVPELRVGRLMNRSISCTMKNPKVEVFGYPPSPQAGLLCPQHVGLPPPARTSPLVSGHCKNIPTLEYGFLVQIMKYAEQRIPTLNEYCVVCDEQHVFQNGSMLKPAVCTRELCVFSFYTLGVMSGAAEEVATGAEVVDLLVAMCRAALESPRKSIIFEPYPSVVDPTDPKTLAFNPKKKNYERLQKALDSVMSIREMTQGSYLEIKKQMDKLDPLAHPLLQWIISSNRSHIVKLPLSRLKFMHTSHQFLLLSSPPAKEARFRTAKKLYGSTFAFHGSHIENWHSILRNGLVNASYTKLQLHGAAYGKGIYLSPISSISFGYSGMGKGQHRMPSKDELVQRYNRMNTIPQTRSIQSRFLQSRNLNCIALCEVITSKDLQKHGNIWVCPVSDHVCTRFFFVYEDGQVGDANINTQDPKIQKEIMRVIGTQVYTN

PSN1 cells [3] = assay: Flow cytometry of nuclear protein expression post [123I]CC1 treatment; assay type: cell-based; details: PSN1, 24 h after 1-hour exposure, 50 kBq
Method: (§3) AsPC1, PSN1 or U87MG (1×10^6 cells/well in 2 mL growth medium) were seeded in 6-well plates and allowed to adhere for at least 20 h. […] Cells were harvested using trypsin-EDTA solution and washed with FACS buffer (PBS, 2% FBS, 1 mM EDTA, 0.1% NaN3) and centrifuged at 500×g for 5 min. Immunostaining was performed using the Foxp3/transcription factor staining buffer set (eBioscience™, USA). Intracellular staining was conducted in permeabilization buffer for 30 min at 4° C. in the dark using the following antibodies separately: AF488-conjugated anti-PARP-1 (1:100; sc-80070), AF594-conjugated anti-PARP-2 (1:100; sc-393310) and AF488-conjugated anti-PARP-3 (1:100; sc-390771) from Santa Cruz Biotechnology Inc. (USA), AF488-conjugated anti-IMPDH2 (1:500; ab-200770) from Abcam plc. (UK), yH2AX (1:1000; JBW301 Merck-Millipore). Fixable viability dye ef780 (1:4000; eBioscience™; 65-0865-14) was used for live/dead discrimination. Fixation of immunostained cells was performed for 15 min at RT. Flow cytometry was conducted using a CytoFLEX flow cytometer (Beckman Coulter, USA), with appropriate laser and filters, positive and negative controls. Data were analyzed using FlowJo™ (Tree Star Inc., BD Biosciences, USA).
(§4) Quantification of AsPC1, PSN1 or U87MG cells was conducted following the protocol outlined in part A hereinbefore. Relative expression of PARP1 and 2 was measured using flow cytometry. γH2AX expression, as a measure for DNA double strand break damage, was assessed in a similar manner.

AsPC1 cells [4] = assay: as above; assay type: cell-based; details: 50 kBq
Method: as §3, §4

U87MG xenografts [5] = assay: In vivo therapy study; set-up: species or system mice; details: single i.v. 3 MBq
Method: (§5) Mice were monitored daily. Tumour sizes were determined by calliper. Study endpoints were based on humane endpoints, including a tumour size >1000 mm^3, or weight loss >15%.

MDA-MB-231 xenografts [6] = assay: In vivo therapy study; set-up: species or system mice; details: single i.v. 3 MBq
Method: as §5

PSN1 xenografts [7] = assay: In vivo therapy study; details: single i.v. 3 MBq
Method: […]. Mice and tumour sizes were monitored daily. Study endpoint was determined based humane endpoints, including a tumour size >1200 mm^3, or weight loss >15%.
[…]. Mice were monitored daily. Tumour sizes were determined by calliper. Study endpoints were based on humane endpoints, including a tumour size >1000 mm^3, or weight loss >15%.

[8] = Toxicology: H&E staining of normal tissues; assay type: in vivo, C57/Bl6 mice; details: 3 MBq i.v.
Description: Liver, spleen, kidneys and intestines were investigated by an experienced veterinary pathologist and compared to age-matched non-treated control animals.
Tissues were further stained for γH2AX to investigate DNA double strand break damage, and livers were additionally stained for PAS, as a marker for glycogen storage.

U87MG cells [9] = assay: Flow cytometry of nuclear protein expression post [123I]CC1 treatment; assay type: cell-based, Human; details: 24 h after 1-hour exposure, 50 kBq
Method: as §3, §4

PSN1 cells [10] = assay: In vitro uptake and specificity of [123I]CC1; assay type: cell-based; details: for uptake of [123I]CC1 on addition of cold blocker: PSN1, blocker 100 μM, 45 min before tracer
Method: (§6) AsPC1 (1×10^5 cells/well), PSN1 cells (7.5×10^4 cells/well) or U87MG (1×10^5 cells/well) were seeded separately in 24-well plates containing growth medium and allowed to adhere for at least 20 h. Cells were washed and exposed to cold, unlabelled PARP inhibitors (100 μM, in a total of 270 μL growth medium) for 45 min at 37° C. […] Cell culture medium was removed, and cells washed with PBS. Cells were lysed using RIPA buffer ([…] Tris pH 8.0, 1% NP40, 0.5% sodium deoxycholate, 0.1% sodium dodecyl sulphate, and 150 mM sodium chloride) for 15 min at room temperature, and the amount of ^123I in cell lysates was measured using an automated gamma counter (PerkinElmer). […] The amount of ^123I in cell lysates was measured as above.
(§7) AsPC1 (1×10^5 cells/well), PSN1 (7.5×10^4 cells/well) or U87MG (1×10^5 cells/well) were seeded as described in part A hereinbefore. CAPAN-1 cells (7.5×10^4 cells/well) were seeded following the same protocol described in part A hereinbefore.

AsPC1 cells [11] = assay: In vitro uptake and specificity of [123I]CC1; assay type: cell-based; details: for uptake of [123I]CC1 on addition of cold blocker: AsPC1, blocker 100 μM, 45 min before tracer
Method: as §6, §7

PSN1 xenografts [12] = assay: Biodistribution of [123I]CC1 in xenograft-bearing mice; assay type: in vivo; details: for tumour uptake: 1 h after i.v. 3 MBq
Method: PSN1 cells were harvested using trypsin, washed twice with PBS, and reconstituted in PBS: Matrigel® Matrix High Concentration (1:1). Cell suspensions (PSN1: 2×10^6 […]) were injected subcutaneously in the front right flank of the mice, and allowed to grow to a size of approximately 200 mm^3.
To evaluate the specificity of tumour uptake, an excess of unlabelled rucaparib (0.5 mg) was co-administered as blocking agent. Either after 60 or 120 min after radiolabelled compound injection, animals were euthanised. Selected organs, tissues and blood were removed, and the percentage of the injected dose per gram of tissue (% ID/g) was determined, using a HIDEX automated gammacounter.
(§8) Following the protocol described in part A hereinbefore, PSN1, U87MG, or MDA-MB-231 cells were harvested using trypsin, washed twice with PBS, and reconstituted in PBS: Matrigel® Matrix High Concentration (1:1). Cell suspensions were injected subcutaneously in the hind right flank and allowed to form tumours. […] To evaluate the specificity of tumour uptake, an excess of unlabelled rucaparib (0.5 mg) was co-administered as a blocking agent in some animals. Either 60 or 120 min after radiolabelled compound injection, animals were euthanised (n=3 per group). Selected organs, tissues and blood were removed, and the percentage of the injected activity per gram of tissue (% IA/g) was determined, using a HIDEX automated gammacounter.

U87MG xenografts [13] = assay: as above; assay type: in vivo; details: 2 h after i.v. 3 MBq
Method: as §8

MDA-MB-231 xenografts [14] = assay: as above; assay type: in vivo; details: 2 h after i.v. 3 MBq
Method: as §8

[15] = Blood clearance by VOI analysis of dynamic imaging; assay type: in vivo; details: PSN1 xenograft-bearing mice, i.v. 3 MBq; CI95 1.64-2.09 min
Method: Images were analysed using VOI-based analysis, using PMOD.
In a selected number of animals (n=3), animals were anaesthetised using 2% isoflurane, and dynamic SPECT/CT imaging was performed over 1 h, using a MILabs VECTor4 camera, equipped with an ultra-high-resolution rat/mouse collimator (1.8 mm), followed by a cone-beam CT scan (55 kV, 0.19 mA) for anatomical reference and attenuation correction. Anesthesia was maintained using 2.5% isoflurane throughout the duration of image acquisition. SPECT images were reconstructed using U-SPECT-Rec3.22 software (MILabs, Utrecht, The Netherlands), applying a pixel-based algorithm, ordered subset expectation maximisation (OSEM) with 4 subsets, 4 iterations and 0.6 mm voxel size for lodine-123 (energy window settings 141.3-172.7 keV). Reconstructed SPECT and CT images were viewed and analyzed using PMOD v.3.37 (PMOD Technologies, Zurich, Switzerland).

U87MG cells [16] = assay: In vitro uptake and specificity of [123I]CC1; assay type: cell-based, Human; details: for uptake of [123I]CC1 on addition of cold blocker: blocker 100 μM, 45 min before tracer
Method: as §6, §7

[17] = AsPC1, 24 h after 1-hour exposure

O=C(c1cc(Cc2n[nH]c(=O)c3ccccc23)ccc1[123I])N1CCN(C(=O)C2CC2)CC1 [CC1]
effect on clonogenic survival (U87MG cells [1]): no effect
effect on clonogenic survival (PSN1 cells [2]): no effect
inhibition of PARP6 catalytic activity by a single dose (PARP6): able to inhibit

O=C(c1cc(Cc2n[nH]c(=O)c3ccccc23)ccc1[123I])N1CCN(C(=O)C2CC2)CC1 [[^123I]CC1]
PARP1 expression (PSN1 cells [3]): increased expression
PARP2 expression (PSN1 cells [3]): increased expression
γH2AX expression (DNA double strand breaks) (PSN1 cells [3]): increased significantly; also recorded: increased markedly
PARP1 expression (AsPC1 cells [4]; [17]): increased expression
PARP2 expression (AsPC1 cells [4]; [17]): increased expression
γH2AX expression (DNA double strand breaks) (AsPC1 cells [4]; AsPC1, 24 h after exposure): increased significantly
amount from which clonogenic survival is significantly reduced (U87MG cells [1]; 1 h exposure): ≥ 10 Bq
clonogenic survival IC50 (U87MG cells [1]; in 200 μl, 60 min exposure): 631±35 Bq
tumour growth response (U87MG xenografts [5]): responded less than PSN-1 xenografts
tumour growth response (MDA-MB-231 xenografts [6]): not affected in their growth
tumour growth (PSN1 xenografts [7]; PSN1 xenografts, vs cold unlabelled CC1, p=0.04): significant inhibition of tumour growth
gross toxicity (weight loss of the mice) (PSN1 xenografts [7]): without signs of gross toxicity
shrunken (pyknotic) hepatocytes in liver [8]: 0.1-0.2 per field
histopathology, intestines ([8]; 24 h and 28 days): minimal proprial infiltration by lymphocytes and plasma cells
histopathology, kidneys ([8]; 24 h and 28 days): no observable changes
histopathology, liver: the one marked effect ([8]; 24 h and 28 days): diffuse cytoplasmic pallor/rarefaction
histopathology, spleen ([8]; 24 h and 28 days): mild to moderate numbers of hemosiderophages
clonogenic survival IC50 (PSN1 cells [2]; PSN1, 60 min exposure): 1 kBq/mL
effect on clonogenic survival (PSN1 cells [2]): far less pronounced
PARP1 expression (U87MG cells [9]): increased expression
PARP2 expression (U87MG cells [9]): increased expression
γH2AX expression (DNA double strand breaks) (U87MG cells [9]): increased significantly; also recorded: increased markedly
time at which cell uptake plateaus (PSN1 cells [10]; PSN1, 37° C.): 1 h
cell uptake (PSN1 cells [10]; PSN1, Part B): around 0.3 fmol/cell
time at which cell uptake plateaus (AsPC1 cells [11]; AsPC1, 37° C.): 1 h
cell uptake (AsPC1 cells [11]; AsPC1, Part B): around 0.3 fmol/cell
clearance pattern (high uptake in liver and intestines) (PSN1 xenografts [12]; PSN1 xenograft-bearing mice, 3 MBq, 20 GBq/μmol): hepatobiliary clearance pattern
tumour uptake (PSN1 xenografts [12]; PSN-1 xenografts, Part A): 0.9±0.06 % ID/g
tumour uptake (PSN1 xenografts [12]; PSN-1 xenografts, Part B): 0.9±0.06 % IA/g
amount remaining in tumour (PSN1 xenografts [12]; PSN-1 xenografts, 24 h after injection): 0.033±0.017 % IA/g
tumour uptake (U87MG xenografts [13]): 0.46±0.01 % IA/g
tumour uptake (MDA-MB-231 xenografts [14]): 0.19±0.01 % IA/g
blood clearance, weighed half-life [15]: 1.86 min
time at which cell uptake plateaus (U87MG cells [16]; 37° C.): 1 h
cell uptake (U87MG cells [16]; Part B): around 0.3 fmol/cell

O=c1c(-c2ccc(O)cc2)coc2cc(O[C@@H]3O[C@H](CO)[C@@H](O)[C@H](O)[C@H]3O)ccc12 [daidzin, reference compound]
uptake of [123I]CC1 on addition of cold blocker (PSN1 cells [10]): reduced
uptake of [123I]CC1 on addition of cold blocker (AsPC1 cells [11]): reduced
uptake of [123I]CC1 on addition of cold blocker (U87MG cells [16]): reduced

COc1c(C)c2c(c(O)c1C/C=C(\C)CCC(=O)OCCN1CCOCC1)C(=O)OC2 [m.mofetil, Mycophenolate mofetil, reference compound]
uptake of [123I]CC1 on addition of cold blocker (PSN1 cells [10]): reduced
uptake of [123I]CC1 on addition of cold blocker (AsPC1 cells [11]): reduced
uptake of [123I]CC1 on addition of cold blocker (U87MG cells [16]): reduced

O=C(c1cc(Cc2n[nH]c(=O)c3ccccc23)ccc1F)N1CCN(C(=O)C2CC2)CC1 [olaparib, reference compound]
effect on clonogenic survival (U87MG cells [1]): no effect
effect on clonogenic survival (PSN1 cells [2]): no effect

CNCc1ccc(-c2[nH]c3cc(F)cc4c3c2CCNC4=O)cc1 [rucaparib, reference compound]
tumour uptake of [123I]CC1 on co-administration of excess blocker (PSN1 xenografts [12]; PSN1 xenografts, 0.5 mg blocker, 2 h, P<0.05): significantly reduced tumour uptake
